Data taken from the kinase profiling compilation of Christmann-Franck et al. (2016).

Legend:
Experiment in all cases: KINOMEscan competition binding
Conditions in all cases: compound 10.0 µM
SNRK (human) = SNRK (human) (UniProt Q9NRH2)
[1] = test system: PIK3CA (human), P42336 [E545K]
MET (human) = MET (human) (UniProt P08581)
[2] = test system: PIK3CA (human), P42336 [H1047Y]
PIP5K1C (human) = PIP5K1C (human) (UniProt O60331)
IRAK4 (human) = IRAK4 (human) (UniProt Q9NWZ3)
PI4KB (human) = PI4KB (human) (UniProt Q9UBF8)
[3] = test system: EGFR (human), P00533 [L861Q]
MYLK3 (human) = MYLK3 (human) (UniProt Q32MK0)
SBK1 (human) = SBK1 (human) (UniProt Q52WX2)
DDR1 (human) = DDR1 (human) (UniProt Q08345)
[4] = test system: KIT (human), P10721 [V559D/T670I]
PRPF4B (human) = PRPF4B (human) (UniProt Q13523)
CDKL3 (human) = CDKL3 (human) (UniProt Q8IVW4)
MTOR (human) = MTOR (human) (UniProt P42345)
CDK13 (human) = CDK13 (human) (UniProt Q14004)
HIPK2 (human) = HIPK2 (human) (UniProt Q9H2X6)
CPK1 (P.falciparum) = test system: CPK1 (P.falciparum)
[5] = test system: PIK3CA (human), P42336 [Q546K]
MAP3K1 (human) = MAP3K1 (human) (UniProt Q13233)
CASK (human) = CASK (human) (UniProt O14936)
GRK7 (human) = GRK7 (human) (UniProt Q8WTQ7)
HUNK (human) = HUNK (human) (UniProt P57058)
[6] = test system: PIK3CA (human), P42336 [E545A]
[7] = test system: PIK3CA (human), P42336 [C420R]
SGK3 (human) = SGK3 (human) (UniProt Q96BR1)
Chain of SGK3 (human) (Q96BR1 whole entry, looked up): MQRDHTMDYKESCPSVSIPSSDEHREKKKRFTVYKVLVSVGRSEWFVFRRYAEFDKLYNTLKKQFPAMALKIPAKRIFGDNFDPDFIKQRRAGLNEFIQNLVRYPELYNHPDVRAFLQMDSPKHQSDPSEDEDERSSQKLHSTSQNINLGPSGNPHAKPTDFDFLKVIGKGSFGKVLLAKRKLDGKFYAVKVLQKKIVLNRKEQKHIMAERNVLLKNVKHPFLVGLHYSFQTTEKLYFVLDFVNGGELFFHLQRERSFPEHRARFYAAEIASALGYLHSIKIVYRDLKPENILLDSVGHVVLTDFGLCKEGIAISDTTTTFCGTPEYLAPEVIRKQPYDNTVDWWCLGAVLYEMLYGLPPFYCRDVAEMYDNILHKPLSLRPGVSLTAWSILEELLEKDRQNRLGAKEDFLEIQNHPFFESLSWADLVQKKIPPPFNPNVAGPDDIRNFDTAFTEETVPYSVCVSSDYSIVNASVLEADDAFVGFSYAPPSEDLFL

TBK1 (human) = TBK1 (human) (UniProt Q9UHD2)
Chain of TBK1 (human) (Q9UHD2 whole entry, looked up): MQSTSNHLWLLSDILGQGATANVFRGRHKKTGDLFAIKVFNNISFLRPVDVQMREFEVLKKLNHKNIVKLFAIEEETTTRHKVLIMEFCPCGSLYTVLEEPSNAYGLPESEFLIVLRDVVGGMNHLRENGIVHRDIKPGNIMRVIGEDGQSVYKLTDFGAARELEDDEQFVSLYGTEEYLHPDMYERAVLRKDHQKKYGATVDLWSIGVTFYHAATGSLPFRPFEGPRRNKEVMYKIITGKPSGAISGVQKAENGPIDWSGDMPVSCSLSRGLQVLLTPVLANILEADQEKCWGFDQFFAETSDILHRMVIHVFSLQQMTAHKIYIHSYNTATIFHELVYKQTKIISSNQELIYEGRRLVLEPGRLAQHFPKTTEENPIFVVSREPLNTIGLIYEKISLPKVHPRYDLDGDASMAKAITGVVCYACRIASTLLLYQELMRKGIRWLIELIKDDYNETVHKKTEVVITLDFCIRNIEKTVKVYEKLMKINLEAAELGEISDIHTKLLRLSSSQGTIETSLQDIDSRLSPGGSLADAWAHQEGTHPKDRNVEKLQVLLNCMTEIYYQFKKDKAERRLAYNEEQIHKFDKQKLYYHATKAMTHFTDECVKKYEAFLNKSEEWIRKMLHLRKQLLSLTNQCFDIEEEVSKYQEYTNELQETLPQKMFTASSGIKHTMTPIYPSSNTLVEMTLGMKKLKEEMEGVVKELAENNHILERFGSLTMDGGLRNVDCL

SIK3 (human) = SIK3 (human) (UniProt Q9Y2K2)
DSTYK (human) = DSTYK (human) (UniProt Q6XUX3)
CDK2 (human) = CDK2 (human) (UniProt P24941)
VRK2 (human) = VRK2 (human) (UniProt Q86Y07)
Chain of VRK2 (human) (Q86Y07 whole entry, looked up): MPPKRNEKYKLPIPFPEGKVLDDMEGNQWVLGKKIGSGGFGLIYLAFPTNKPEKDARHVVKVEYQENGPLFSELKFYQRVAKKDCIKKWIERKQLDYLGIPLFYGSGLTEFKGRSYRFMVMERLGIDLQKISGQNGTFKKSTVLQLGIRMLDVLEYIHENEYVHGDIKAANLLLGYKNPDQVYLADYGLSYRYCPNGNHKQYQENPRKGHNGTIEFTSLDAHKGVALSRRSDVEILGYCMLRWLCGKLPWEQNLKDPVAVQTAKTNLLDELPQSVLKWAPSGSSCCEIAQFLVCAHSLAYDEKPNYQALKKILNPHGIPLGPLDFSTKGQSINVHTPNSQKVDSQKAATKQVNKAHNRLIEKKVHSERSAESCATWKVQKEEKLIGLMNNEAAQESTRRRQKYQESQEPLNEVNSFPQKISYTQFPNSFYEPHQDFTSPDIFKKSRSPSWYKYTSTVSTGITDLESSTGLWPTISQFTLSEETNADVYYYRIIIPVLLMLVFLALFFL

PIK3CA (human) = PIK3CA (human) (UniProt P42336)
[8] = test system: EGFR (human), P00533 [746-750 del]
EPHB6 (human) = EPHB6 (human) (UniProt O15197)
PRKCI (human) = PRKCI (human) (UniProt P41743)
Chain of PRKCI (human) (P41743 whole entry, looked up): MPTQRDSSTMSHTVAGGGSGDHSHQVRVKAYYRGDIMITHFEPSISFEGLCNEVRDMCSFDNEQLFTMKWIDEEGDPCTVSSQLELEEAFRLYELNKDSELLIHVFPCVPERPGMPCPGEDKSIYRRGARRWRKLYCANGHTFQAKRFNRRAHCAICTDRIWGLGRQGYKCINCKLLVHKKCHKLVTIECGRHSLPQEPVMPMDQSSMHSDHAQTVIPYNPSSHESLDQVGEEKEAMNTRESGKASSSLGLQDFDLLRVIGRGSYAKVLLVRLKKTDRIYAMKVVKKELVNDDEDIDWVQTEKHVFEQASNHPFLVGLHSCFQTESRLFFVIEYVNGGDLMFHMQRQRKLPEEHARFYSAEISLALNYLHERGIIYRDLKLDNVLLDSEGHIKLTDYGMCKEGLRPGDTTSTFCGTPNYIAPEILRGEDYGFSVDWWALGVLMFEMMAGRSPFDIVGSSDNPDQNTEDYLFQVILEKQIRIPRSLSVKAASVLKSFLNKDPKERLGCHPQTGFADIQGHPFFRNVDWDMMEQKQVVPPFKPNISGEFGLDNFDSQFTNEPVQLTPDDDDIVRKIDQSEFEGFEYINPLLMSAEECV

MAP3K15 (human) = MAP3K15 (human) (UniProt Q6ZN16)
Chain of MAP3K15 (human) (Q6ZN16 whole entry, looked up): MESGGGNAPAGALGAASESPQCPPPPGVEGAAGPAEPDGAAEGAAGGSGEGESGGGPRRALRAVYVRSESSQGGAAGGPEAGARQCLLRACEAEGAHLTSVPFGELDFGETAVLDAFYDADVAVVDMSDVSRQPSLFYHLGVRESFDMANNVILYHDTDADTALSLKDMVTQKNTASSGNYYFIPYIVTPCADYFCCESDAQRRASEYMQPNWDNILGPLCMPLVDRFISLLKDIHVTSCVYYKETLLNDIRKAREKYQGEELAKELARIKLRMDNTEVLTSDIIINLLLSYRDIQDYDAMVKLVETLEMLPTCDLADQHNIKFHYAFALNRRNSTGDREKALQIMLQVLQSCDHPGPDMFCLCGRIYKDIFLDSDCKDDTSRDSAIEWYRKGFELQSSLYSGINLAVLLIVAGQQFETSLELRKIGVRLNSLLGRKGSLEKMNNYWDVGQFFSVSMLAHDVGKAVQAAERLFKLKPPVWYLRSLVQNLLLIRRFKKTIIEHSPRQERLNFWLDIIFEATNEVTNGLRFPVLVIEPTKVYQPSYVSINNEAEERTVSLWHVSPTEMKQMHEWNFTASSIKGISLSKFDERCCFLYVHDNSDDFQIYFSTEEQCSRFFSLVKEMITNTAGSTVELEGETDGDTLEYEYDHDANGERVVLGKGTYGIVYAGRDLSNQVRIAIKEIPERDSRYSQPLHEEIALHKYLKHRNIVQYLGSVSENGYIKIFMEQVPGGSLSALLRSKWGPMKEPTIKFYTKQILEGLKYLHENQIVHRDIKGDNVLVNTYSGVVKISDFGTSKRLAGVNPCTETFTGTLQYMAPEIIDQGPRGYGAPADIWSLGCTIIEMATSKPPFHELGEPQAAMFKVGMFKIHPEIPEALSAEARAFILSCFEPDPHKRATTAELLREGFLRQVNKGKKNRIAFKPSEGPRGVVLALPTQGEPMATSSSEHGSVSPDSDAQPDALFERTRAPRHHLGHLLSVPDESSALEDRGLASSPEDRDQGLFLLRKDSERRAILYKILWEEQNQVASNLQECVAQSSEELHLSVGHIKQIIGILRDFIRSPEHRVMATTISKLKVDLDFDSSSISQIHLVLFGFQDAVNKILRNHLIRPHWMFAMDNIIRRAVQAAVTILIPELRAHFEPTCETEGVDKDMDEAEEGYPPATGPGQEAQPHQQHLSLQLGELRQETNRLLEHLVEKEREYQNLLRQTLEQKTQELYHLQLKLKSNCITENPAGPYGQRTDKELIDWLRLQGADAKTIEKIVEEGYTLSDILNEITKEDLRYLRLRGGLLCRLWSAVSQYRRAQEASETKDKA

ERN1 (human) = ERN1 (human) (UniProt O75460)
PIP4K2C (human) = PIP4K2C (human) (UniProt Q8TBX8)
BTK (human) = BTK (human) (UniProt Q06187)
BRAF (human) = BRAF (human) (UniProt P15056)

Chain of IRAK4 (human) (Q9NWZ3 whole entry, looked up): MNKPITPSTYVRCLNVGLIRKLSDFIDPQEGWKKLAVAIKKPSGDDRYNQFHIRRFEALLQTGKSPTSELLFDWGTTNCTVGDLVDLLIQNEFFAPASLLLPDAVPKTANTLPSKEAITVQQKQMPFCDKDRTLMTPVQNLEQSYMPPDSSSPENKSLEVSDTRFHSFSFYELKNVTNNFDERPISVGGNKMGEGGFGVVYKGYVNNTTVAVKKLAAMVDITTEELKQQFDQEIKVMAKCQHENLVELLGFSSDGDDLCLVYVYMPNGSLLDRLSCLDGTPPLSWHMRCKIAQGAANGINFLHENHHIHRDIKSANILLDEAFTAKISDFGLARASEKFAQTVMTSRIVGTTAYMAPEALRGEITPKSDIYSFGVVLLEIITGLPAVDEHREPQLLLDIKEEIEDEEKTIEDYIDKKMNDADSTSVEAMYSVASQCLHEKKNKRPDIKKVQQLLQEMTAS
Chain of SNRK (human) (Q9NRH2 whole entry, looked up): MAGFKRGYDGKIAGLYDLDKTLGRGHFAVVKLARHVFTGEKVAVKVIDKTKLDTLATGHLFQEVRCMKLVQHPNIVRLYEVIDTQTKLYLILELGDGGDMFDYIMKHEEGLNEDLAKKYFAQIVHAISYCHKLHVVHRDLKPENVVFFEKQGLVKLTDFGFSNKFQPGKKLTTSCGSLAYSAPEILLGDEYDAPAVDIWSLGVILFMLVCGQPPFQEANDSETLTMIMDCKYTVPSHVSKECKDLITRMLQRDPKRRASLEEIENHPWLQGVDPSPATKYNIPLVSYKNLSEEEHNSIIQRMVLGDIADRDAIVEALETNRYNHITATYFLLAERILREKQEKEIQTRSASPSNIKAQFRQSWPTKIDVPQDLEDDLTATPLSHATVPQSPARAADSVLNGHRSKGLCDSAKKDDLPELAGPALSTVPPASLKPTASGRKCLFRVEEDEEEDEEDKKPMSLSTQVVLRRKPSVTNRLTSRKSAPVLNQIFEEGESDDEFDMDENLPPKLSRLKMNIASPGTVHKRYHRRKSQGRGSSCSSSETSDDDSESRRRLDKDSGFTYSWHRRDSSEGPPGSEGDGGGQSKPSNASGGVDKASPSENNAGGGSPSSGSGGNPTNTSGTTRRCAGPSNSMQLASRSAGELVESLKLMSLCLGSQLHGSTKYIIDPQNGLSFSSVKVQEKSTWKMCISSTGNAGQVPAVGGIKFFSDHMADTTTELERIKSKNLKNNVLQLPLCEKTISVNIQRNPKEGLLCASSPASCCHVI

SMILES	kinase still bound, per cent of control (SNRK (human)) [%]	kinase still bound, per cent of control [1] [%]	kinase still bound, per cent of control (MET (human)) [%]	kinase still bound, per cent of control [2] [%]	kinase still bound, per cent of control (PIP5K1C (human)) [%]	kinase still bound, per cent of control (IRAK4 (human)) [%]	kinase still bound, per cent of control (PI4KB (human)) [%]	kinase still bound, per cent of control (SBK1 (human)) [%]	kinase still bound, per cent of control [4] [%]	kinase still bound, per cent of control (PRPF4B (human)) [%]	kinase still bound, per cent of control (CDKL3 (human)) [%]	kinase still bound, per cent of control (MTOR (human)) [%]	kinase still bound, per cent of control (CDK13 (human)) [%]	kinase still bound, per cent of control (HIPK2 (human)) [%]	kinase still bound, per cent of control (CPK1 (P.falciparum)) [%]	kinase still bound, per cent of control [5] [%]	kinase still bound, per cent of control (MAP3K1 (human)) [%]	kinase still bound, per cent of control (CASK (human)) [%]	kinase still bound, per cent of control (GRK7 (human)) [%]	kinase still bound, per cent of control (HUNK (human)) [%]	further results
C=CC(=O)Nc1cc(NC(=O)c2ccc(C)c(NC(=O)c3ccno3)c2)cc(C(F)(F)F)c1	100	95	100	95	100	99	88	100	77	100	90	97	100	86	94	78	94	83	100	100	kinase still bound, per cent of control [3]: 100%; kinase still bound, per cent of control (MYLK3 (human)): 91%; kinase still bound, per cent of control (DDR1 (human)): 0.1%; kinase still bound, per cent of control [6]: 86%; kinase still bound, per cent of control [7]: 82%; kinase still bound, per cent of control (SGK3 (human)): 100%; kinase still bound, per cent of control (TBK1 (human)): 100%; kinase still bound, per cent of control (SIK3 (human)): 82%; kinase still bound, per cent of control (DSTYK (human)): 100%; kinase still bound, per cent of control (CDK2 (human)): 100%; kinase still bound, per cent of control (VRK2 (human)): 100%; kinase still bound, per cent of control (PIK3CA (human)): 76%; kinase still bound, per cent of control [8]: 81%; kinase still bound, per cent of control (EPHB6 (human)): 81%; kinase still bound, per cent of control (PRKCI (human)): 100%; kinase still bound, per cent of control (MAP3K15 (human)): 77%; kinase still bound, per cent of control (ERN1 (human)): 90%; kinase still bound, per cent of control (PIP4K2C (human)): 90%; kinase still bound, per cent of control (BTK (human)): 100%
CCCS(=O)(=O)Nc1ccc(F)c(C(=O)c2c[nH]c3ncc(-c4ccc(Cl)cc4)cc23)c1F	100	100	53	88	44	86	0.7	92	60	92	100	100	100	66	0	86	91	80	93	9.1	kinase still bound, per cent of control (BRAF (human)): 0%; kinase still bound, per cent of control [6]: 95%; kinase still bound, per cent of control [7]: 100%; kinase still bound, per cent of control (SGK3 (human)): 71%; kinase still bound, per cent of control (TBK1 (human)): 100%; kinase still bound, per cent of control (SIK3 (human)): 100%; kinase still bound, per cent of control (DSTYK (human)): 22%; kinase still bound, per cent of control (VRK2 (human)): 100%; kinase still bound, per cent of control (PIK3CA (human)): 94%; kinase still bound, per cent of control (EPHB6 (human)): 5.8%; kinase still bound, per cent of control (PRKCI (human)): 100%; kinase still bound, per cent of control (MAP3K15 (human)): 100%; kinase still bound, per cent of control (ERN1 (human)): 82%; kinase still bound, per cent of control (PIP4K2C (human)): 100%; kinase still bound, per cent of control (BTK (human)): 93%
